The values below come from patent US12152008B2, “Cyclopentaimidazolones for the treatment of cancer” (The Broad Institute, Inc., priority 2018, dated 2024).

A value given as a limit tells only on which side of the number the result lay.

Holding throughout (assay type): cell-based
The test system of assay [1] is PF0202 patient-derived organoid. Kind of assay: Patient-derived organoid viability screen, IC50. Particulars: read-out: IC50 PF 0202. How it is done:
(§1) Compounds were tested on patient-derived tumor organoids. Such organoids retain the three-dimensional structure of the tissue providing conditions that are more representative of in vivo behavior. Such organoids are described by Boj, Sylvia, et al., Cell 160: 324 (2015), hereby incorporated by reference in its entirety. Briefly, cultures of primary and metastatic pancreatic tumor specimens as patient-derived xenografts, 3D tumor organoids, and patient-derived cell lines were produced including a cohort of 21 patient-derived xenografts and 67 organoid cultures from primary and metastatic pancreatic tumor specimens. The functional dependencies of compounds in these patient-derived samples were measured on a 3D organoid and its matched 2D patient-derived cell lines. Conditions were optimized for performing high-throughput compound screening of 3D organoids, including suspension culture with Matrigel in 384-well plates, viability assessment with CellTiter-Glo 3D. […] FIG. 2A illustrates the dose dependent responses of an enantioenriched sample of Compound E1 synthesized using an enantio-purified sample of E1 in the (R,R)-configuration (70% ee) (e.g., E1(R,R)), an enantioenriched sample of E1 (“E1(S,S)”), and racemic mixtures of E1 on NCIH2405 cells (“E1”).
(§2) Table 1 gives the IC50 values (μM) of compounds having the structure of formula (I) (including E1(S,S) and E1(Rac) in patient-derived organoids and several cell lines. Compounds E1-E12 were synthesized as described above as racemates (i.e., E1(Rac)-R12(Rac), and E1(S,S) and E1(R,R) were synthesized using the (S,S)-5 reagent or (R,R)-5 reagent, respectively, as described above.

For assay [2], the system named is PF0172_T2 patient-derived organoid. In words: Patient-derived organoid viability screen, IC50. Particulars: read-out: IC50 PF 0172_T2. The method, then:
as §1, §2

The subject of assay [3] is PF0039 patient-derived organoid. In words: Patient-derived organoid viability screen, IC50. Particulars: read-out: IC50 PF 0039. How it is done:
as §1, §2

For assay [4], the system named is PaTu 8902. Kind of assay: Cell line viability screen, IC50 (CellTiter-Glo 3D). Particulars: PaTu 8902 cell line. The method, then:
as §1, §2

Assay [5] relates to BxPC-3. Described as above. Particulars: BxPC3 cell line. How it is done: as §1, §2
The subject of assay [6] is OV-90. Described as above. Particulars: OV90 cell line. How it is done:
as §1, §2

The subject of assay [7] is NCIH2405 cells. Described as above. Particulars: read-out: IC50 NCIH 2405. The method, then:
as §1, §2

Assay [8] has as its system patient derived organoids and cell lines. In words: Organoid and cell line screen, panel (FIG. 1). Particulars: organoids PF0039, PF0071, PF0172-T2, PF0202, cell lines PaTu 8902, BxPC-3, NCIH2405, OV-90. How it is done: as §1
Assay [9] concerns PF0071 organoids. In words: PF0071 sensitivity screen (organoid dose response). The arrangement: key: Active: the analog typically with the lower IC50 value was identified as “active”; Inactive: the analog with the higher IC50 value was identified as “inactive.”. Particulars: optically pure enantiomers. How it is done: as §1
E1(Rac), E5(Rac), and E8(Rac) were synthesized as racemic mixtures (i.e., without a chiral catalyst) and separated into six optically pure compounds.
With the absolute stereochemistry identified, the correlation between specific isomer and activity was determined for PF0071 organoids. Table 2 compares the activities of each set of racemates that were measured as compared to the designations illustrated in FIG. 2B.
The response to dose of several compounds (including a linkered analog) on PF0071 organoids were run. Enantiomers of E1, E5, and E8 were tested and compared to results with a linked compound synthesized as a racemic mixture as described above (identified in FIG. 3 as “Linked E1(Rac)”) having the structure: […]

Take `COC1C=CC2C1N(CC(C)C)C(=O)N2c1ccccc1` (racemic) [Compound E1]: the IC50 (usually the point on the concentration scale where inhibition reaches its midpoint) in [1] was 55.4 µM; in assay [2], 3.41 µM; in assay [3], 22.3 µM; in assay [4] it was greater than 100 µM; in [5] it was greater than 100 µM; in assay [6], greater than 100 µM. In addition, the IC50 in [7] amounted to 7.41 µM. The “Effect on viability across panel” value in assay [8] was “dose-dependent effect on only a subset of organoids”.
For `CC(C)CN1C(=O)N(c2ccccc2)C2C=CC(O)C21` (racemic) [E2(Rac)], the IC50 in [1] is greater than 100 µM; in assay [2], 4.05 µM; in assay [3] it was 31.7 µM; in [4], greater than 100 µM; in assay [5] it was greater than 100 µM; in assay [6], greater than 100 µM. Moreover, the IC50 in assay [7] was greater than 100 µM.
On to `COC1C=CC2C1N(C)C(=O)N2c1ccccc1` (racemic) [E3(Rac)], for which the IC50 in [1] is greater than 100 µM; in [2], 85.8 µM; in [3], greater than 100 µM; in assay [4], greater than 100 µM; in assay [5] it was greater than 100 µM; in assay [6], greater than 100 µM. For the same molecule, the IC50 in [7] was greater than 100 µM.
As to `CCOC1C=CC2C1N(CC(C)C)C(=O)N2c1ccccc1` (racemic) [E4(Rac)], the IC50 in [1] is 40.2 µM; in assay [2], 3.4 µM; in assay [3], 25.8 µM; in assay [4], greater than 100 µM; in assay [5] it was 96.4 µM; in [6] it was 76.9 µM. In addition, in assay [7], the IC50 amounted to 14.3 µM.
For the molecule `COC1CCC2C1N(CC(C)C)C(=O)N2c1ccccc1` (racemic) [E5(Rac)], the 50% inhibitory concentration (IC50) was 16.5 µM in [1]; 1.16 µM in [2]; 7.26 µM in assay [3]; greater than 100 µM in [4]; 64.4 µM in assay [5]; 83.3 µM in [6]. Further, the 50% inhibitory concentration (IC50) in assay [7] stood at 4.11 µM.
Take `COC1C=CC2C1N(CC(C)C)C(=O)N2Cc1ccccc1` (racemic) [E6(Rac)]: the half-inhibitory concentration (IC50) was 65.3 µM in assay [1]; 17.4 µM in [2]; 40.7 µM in [3]; greater than 100 µM in assay [4]; greater than 100 µM in [5]; 96.4 µM in assay [6]. For the same molecule, the IC50 in [7] was greater than 100 µM.
As to `COC1C=CC2C1N(CC(C)C)C(=O)N2c1ccc(C#N)cc1` (racemic) [E7(Rac)], the IC50 in assay [1] was no less than 100 µM; in assay [2], greater than 100 µM; in assay [3] it was greater than 100 µM; in assay [4] it was 75.1 µM; in assay [5] it was greater than 100 µM; in assay [6] it was greater than 100 µM. Besides, the IC50 in assay [7] is greater than 100 µM.
As to `COC1C=CC2C1N(CC(C)C)C(=O)N2c1ccc(Cl)cc1` (racemic) [E8(Rac)], the IC50 in assay [1] was found to be 27.9 µM; in assay [2], 2.15 µM; in [3] it was 8.19 µM; in assay [4], 33.9 µM; in assay [5], 17.3 µM; in [6], 30.7 µM. The IC50 in assay [7] was found to be 2.58 µM.
Take `COc1ccc(N2C(=O)N(CC(C)C)C3C(OC)C=CC32)cc1` (racemic) [E9(Rac)]: the half-inhibitory concentration (IC50) came out at 47.1 µM in assay [1]; 88.6 µM in [2]; 43.5 µM in assay [3]; 76.8 µM in assay [4]; 56.4 µM in assay [5]; 65.5 µM in assay [6]. The IC50 in assay [7] turned out to be 58.8 µM.
As to `COC1C=CC2C1N(CC(C)C)C(=O)N2c1cccc(F)c1` (racemic) [E10(Rac)], the IC50 was 36.9 µM in assay [1]; 2.22 µM in assay [2]; 8.14 µM in [3]; greater than 100 µM in [4]; 66.6 µM in [5]; 83.9 µM in assay [6]. The concentration for half-maximal inhibition (IC50) in assay [7] turned out to be 3.44 µM.
Regarding `COC1C=CC2C1N(CC(C)C)C(=O)N2c1ccc(F)cc1` (racemic) [E11(Rac)], the IC50 was 49.5 µM in [1]; 4.08 µM in [2]; 28.2 µM in assay [3]; greater than 100 µM in assay [4]; greater than 100 µM in assay [5]; 93.6 µM in [6]. Besides, in assay [7], the IC50 is 10.2 µM.
`COC1C=CC2C1N(CC(C)C)C(=O)N2c1ccc(C)cc1` (racemic) [E12(Rac)]: the IC50 is 51.4 µM in assay [1]; 1.21 µM in assay [2]; 7.42 µM in [3]; greater than 100 µM in assay [4]; greater than 100 µM in [5]; 85.9 µM in [6]. For the same molecule, the half-inhibitory concentration (IC50) in assay [7] came to 2.04 µM.
For the molecule `CO[C@@H]1CC[C@@H]2[C@H]1N(CC(C)C)C(=O)N2c1ccccc1` (stereo in doubt), in assay [9], the “Activity (active or inactive)” value is “Active”.
Still for that read-out and setting: to `CO[C@H]1CC[C@H]2[C@@H]1N(CC(C)C)C(=O)N2c1ccccc1` (stereo in doubt) belongs “Inactive”.
Still for that read-out and setting: then `CO[C@@H]1C=C[C@@H]2[C@H]1N(CC(C)C)C(=O)N2c1ccccc1` (stereo in doubt), with “Active”.
For the molecule `CO[C@H]1C=C[C@H]2[C@@H]1N(CC(C)C)C(=O)N2c1ccccc1` (stereo in doubt), in [9], the “Activity (active or inactive)” value was “Inactive”.
Consider `CO[C@@H]1C=C[C@@H]2[C@H]1N(CC(C)C)C(=O)N2c1ccc(Cl)cc1` (stereo in doubt), for which the “Activity (active or inactive)” value in assay [9] is given as “Active”.
Still for that read-out and setting: then `CO[C@H]1C=C[C@H]2[C@@H]1N(CC(C)C)C(=O)N2c1ccc(Cl)cc1` (stereo in doubt), with “Inactive”.
